From patent publication US20250018014A1, “METHOD FOR TREATING AND/OR PREVENTING REGNASE-1-RELATED DISEASE” (OSAKA UNIVERSITY, priority 2018, published 2025)
Where two headings read alike, the source gives them in different places. Residues, ends and D or L forms follow the SMILES beside them.

Key:
[1] = biological target: T1, FL_Reg1 (full-length human Regnase-1) phosphorylation by IKKβ (Homo sapiens, UniProt Q5D1E8); assay: Regnase-1 phosphorylation inhibition by compounds (AlphaScreen), IKKβ, full-length Regnase-1; assay type: biochemical
T1 construct: made in house; host or cells: Expi293 cells
T1 sequence (Q5D1E8 1-599): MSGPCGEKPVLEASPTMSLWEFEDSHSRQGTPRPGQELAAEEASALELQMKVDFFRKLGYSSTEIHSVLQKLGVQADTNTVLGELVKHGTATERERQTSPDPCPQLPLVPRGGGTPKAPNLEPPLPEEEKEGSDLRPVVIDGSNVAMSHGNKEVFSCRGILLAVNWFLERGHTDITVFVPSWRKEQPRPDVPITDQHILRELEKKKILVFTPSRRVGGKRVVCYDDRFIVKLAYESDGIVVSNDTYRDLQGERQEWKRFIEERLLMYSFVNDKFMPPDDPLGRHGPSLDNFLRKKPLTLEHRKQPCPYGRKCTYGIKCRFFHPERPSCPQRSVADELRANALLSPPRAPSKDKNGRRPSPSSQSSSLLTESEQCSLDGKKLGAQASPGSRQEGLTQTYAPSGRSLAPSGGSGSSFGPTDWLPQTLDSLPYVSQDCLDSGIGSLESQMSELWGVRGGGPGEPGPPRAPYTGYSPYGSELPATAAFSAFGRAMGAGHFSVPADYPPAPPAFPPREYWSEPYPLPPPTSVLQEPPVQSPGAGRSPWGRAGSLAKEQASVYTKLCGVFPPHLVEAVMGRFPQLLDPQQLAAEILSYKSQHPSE
Summary of the method: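 FLAG/BirA-tagged human Regnase-1 constructs (full-length, 1–546 or 301–599), expressed in Expi293 cells, were used at 2 nM with compound and phosphorylated by IKKβ or TBK1 with 10 μM ATP, DTT, vanadate and MnCl2 for 2 h at room temperature. Phospho-Regnase-1 was read by AlphaScreen; IC50 came from % inhibition curves normalised to DMSO and Regnase-1-alone signals.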

[2] = biological target: T2, binding between TBK1 and full-length Regnase-1 (FL_Reg1) (Homo sapiens, UniProt Q5D1E8); assay: Inhibition of kinase-Regnase-1 binding by the compounds (AlphaScreen), TBK1
T2 construct: made in house; host or cells: Expi293 cells
T2 sequence (Q5D1E8 1-599): T1 sequence (Q5D1E8 1-599)
Summary of the method: (§1)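 FLAG-tagged, biotin-acceptor-tagged full-length human Regnase-1 was expressed in Expi293 cells. It was mixed at 2.5 nM with compound, then 2.5 nM IKKβ or TBK1 was added for 2 h at room temperature. Binding was read with anti-FLAG acceptor and glutathione donor beads; IC50 came from dose-response inhibition relative to Regnase-1 alone and DMSO.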

[3] = biological target: T3, binding between IKKβ and full-length Regnase-1 (FL_Reg1) (Homo sapiens, UniProt Q5D1E8); assay: Inhibition of kinase-Regnase-1 binding by the compounds (AlphaScreen), IKKβ
T3 construct: made in house; host or cells: Expi293 cells
T3 sequence (Q5D1E8 1-599): T1 sequence (Q5D1E8 1-599)
Summary of the method: as §1

[4] = Table 14, phosphorylation by IKKβ, read-out: Phosphorylation inhibition FL_Reg1, 50% inhibition concentration (IKKβ)
[5] = Table 13, binding between TBK1 and Regnase-1, read-out: Binding inhibition FL_Reg1, 50% inhibition concentration (TBK1)
[6] = Table 14, binding between IKKβ and Regnase-1, read-out: Binding inhibition FL_Reg1, 50% inhibition concentration (IKKβ)
[7] = Table 11, 2 nM Regnase-1, AlphaScreen, read-out: 50% inhibition concentration, Regnase-1 phosphorylation, FL_Reg1, IKKβ
[8] = Table 12, 2.5 nM Regnase-1, 2.5 nM TBK1, AlphaScreen, read-out: 50% inhibition concentration, binding between Regnase-1 and TBK1, FL_Reg1
[9] = Table 12, 2.5 nM Regnase-1, 2.5 nM IKKβ, AlphaScreen, read-out: 50% inhibition concentration, binding between Regnase-1 and IKKβ, FL_Reg1

| Compound | IC50 [1, 4] [µM] | IC50 [2, 5] [µM] | IC50 [3, 6] [µM] | IC50 [1, 7] [µM] | IC50 [2, 8] [µM] | IC50 [3, 9] [µM] |
| --- | --- | --- | --- | --- | --- | --- |
| CC[C@H](C)[C@@H]1NC(=O)[C@H](Cc2c[nH]c3ccccc23)NC(=O)[C@@H](Cc2ccccc2)NC(=O)[C@H](CCCCN)NC(=O)[C@H](C)N(C)C(=O)C[C@@H](C(=O)N2CCCC2)NC(=O)[C@H](CCC(=O)O)NC(=O)[C@H](Cc2ccccc2)NC(=O)[C@H](CO)NC(=O)[C@H](Cc2c[nH]cn2)NC(=O)[C@H](Cc2c[nH]cn2)NC1=O [PP20] (HELM PEPTIDE1{[meA].K.[dF].W.I.H.H.S.F.E.D.[C1CCN([*:1])C1]}$PEPTIDE1,PEPTIDE1,1:R1-11:R3$$$V2.0) | 24.7 | 47.6 | > 62.1 | – | – | – |
| CC[C@H](C)[C@@H]1NC(=O)[C@H](CCCCN)NC(=O)[C@H](Cc2ccc(O)cc2)NC(=O)[C@H](Cc2c[nH]c3ccccc23)NC(=O)[C@H](CO)NC(=O)[C@H](CO)NC(=O)[C@H]([C@@H](C)O)NC(=O)[C@@H]2CCCN2C(=O)[C@@H](C)N(C)C(=O)C[C@@H](C(=O)N2CCCC2)NC(=O)[C@H](Cc2c[nH]c3ccccc23)NC1=O [PP23] (HELM PEPTIDE1{[C[C@H](C(=O)[*:2])N(C)[*:1]].P.T.S.S.W.Y.K.I.W.D.[C1CCN([*:1])C1]}$PEPTIDE1,PEPTIDE1,1:R1-11:R3$$$V2.0) | 25.6 | 9.2 | 41.3 | – | – | – |
| CC[C@H](C)[C@@H]1NC(=O)[C@H](CC(N)=O)NC(=O)[C@H](Cc2ccc(O)cc2)NC(=O)[C@H](Cc2c[nH]c3ccccc23)NC(=O)[C@H](C)NC(=O)[C@H](CC(N)=O)NC(=O)[C@H](CO)NC(=O)[C@H](Cc2c[nH]cn2)NC(=O)[C@H](C)N(C)C(=O)C[C@@H](C(=O)N2CCCC2)NC(=O)[C@H](Cc2c[nH]c3ccccc23)NC1=O [PP5] (HELM PEPTIDE1{[meA].H.S.N.A.W.Y.N.I.W.D.[C1CCN([*:1])C1]}$PEPTIDE1,PEPTIDE1,1:R1-11:R3$$$V2.0) | – | – | – | 23.6 | 11.5 | 24 |
| CC[C@H](C)[C@@H]1NC(=O)[C@H](CCCCN)NC(=O)[C@H](Cc2ccc(O)cc2)NC(=O)[C@H](Cc2ccccc2)NC(=O)[C@H](C(C)C)NC(=O)[C@H](C)N(C)C(=O)C[C@@H](C(=O)N2CCCC2)NC(=O)[C@H](Cc2c[nH]c3ccccc23)NC(=O)[C@H](CC(N)=O)NC(=O)[C@H](Cc2ccc(O)cc2)NC(=O)[C@H](Cc2c[nH]c3ccccc23)NC1=O [PP19] (HELM PEPTIDE1{[meA].V.F.Y.K.I.W.Y.N.W.D.[C1CCN([*:1])C1]}$PEPTIDE1,PEPTIDE1,1:R1-11:R3$$$V2.0) | 5.4 | 2.4 | 5.8 | – | – | – |
| CC[C@H](C)[C@@H]1NC(=O)[C@H](CO)NC(=O)[C@H](CCCNC(=N)N)NC(=O)[C@H](Cc2ccc(O)cc2)NC(=O)[C@H](Cc2ccc(O)cc2)NC(=O)[C@H](Cc2c[nH]c3ccccc23)NC(=O)[C@H](CO)NC(=O)[C@H](CCC(N)=O)NC(=O)[C@H](Cc2ccc(O)cc2)NC(=O)[C@H](CC(N)=O)NC(=O)[C@H](C)N(C)C(=O)C[C@@H](C(=O)N2CCCC2)NC(=O)[C@H](Cc2c[nH]c3ccccc23)NC1=O [PP10] (HELM PEPTIDE1{[meA].N.Y.Q.S.W.Y.Y.R.S.I.W.D.[C1CCN([*:1])C1]}$PEPTIDE1,PEPTIDE1,1:R1-13:R3$$$V2.0) | 0.5 | 9.8 | 11.4 | – | – | – |
| CC[C@H](C)[C@@H]1NC(=O)[C@H](CCCCN)NC(=O)[C@H](Cc2ccccc2)NC(=O)[C@H](Cc2c[nH]c3ccccc23)NC(=O)[C@H](CO)NC(=O)[C@H](CO)NC(=O)[C@H](CC(N)=O)NC(=O)[C@@H]2CCCN2C(=O)[C@@H](C)N(C)C(=O)C[C@@H](C(=O)N2CCCC2)NC(=O)[C@H](Cc2c[nH]c3ccccc23)NC1=O [PP6] (HELM PEPTIDE1{[C[C@H](C(=O)[*:2])N(C)[*:1]].P.N.S.S.W.F.K.I.W.D.[C1CCN([*:1])C1]}$PEPTIDE1,PEPTIDE1,1:R1-11:R3$$$V2.0) | – | – | – | 17 | 19.2 | 42.1 |
| CC[C@H](C)[C@@H]1NC(=O)[C@H](Cc2c[nH]c3ccccc23)NC(=O)[C@H](CCC(N)=O)NC(=O)[C@H](Cc2ccc(O)cc2)NC(=O)[C@H](C(C)C)NC(=O)[C@H](C)NC(=O)[C@H](Cc2ccc(O)cc2)NC(=O)[C@H](CCCNC(=N)N)NC(=O)[C@H](C)N(C)C(=O)C[C@@H](C(=O)N2CCCC2)NC(=O)[C@@H]2CCCN2C(=O)[C@H](Cc2ccc(O)cc2)NC1=O [PP12] (HELM PEPTIDE1{[meA].R.Y.A.V.Y.Q.W.I.Y.P.D.[C1CCN([*:1])C1]}$PEPTIDE1,PEPTIDE1,1:R1-12:R3$$$V2.0) | 6.8 | > 62.1 | > 62.1 | – | – | – |
| CC[C@H](C)[C@@H]1NC(=O)[C@H](CCCNC(=N)N)NC(=O)[C@H](Cc2ccc(O)cc2)NC(=O)[C@H](Cc2c[nH]c3ccccc23)NC(=O)[C@H](C)NC(=O)[C@H](CO)NC(=O)[C@H](C)NC(=O)[C@H](Cc2c[nH]cn2)NC(=O)[C@H](CCCCN)NC(=O)[C@@H](C)N(C)C(=O)C[C@@H](C(=O)N2CCCC2)NC(=O)[C@H](Cc2c[nH]c3ccccc23)NC1=O [PP3] (HELM PEPTIDE1{[C[C@H](C(=O)[*:2])N(C)[*:1]].K.H.A.S.A.W.Y.R.I.W.D.[C1CCN([*:1])C1]}$PEPTIDE1,PEPTIDE1,1:R1-12:R3$$$V2.0) | – | – | – | 4.6 | 3.1 | 8.3 |
